# Measurements as given in US12358918B2, “Aryl hydrocarbon receptor (AHR) activator compounds as cancer therapeutics” (THE BROAD INSTITUTE, INC., priority 2018, dated 2025).
# “Also recorded” adds a separate entry of the source.
# Tests used:
# [1] = tested on: Twelve different breast cancer cell lines; experiment: adenosine receptor antagonists and agonists dosed on twelve breast cancer cell lines; format: cell-based; details: 32 adenosine receptor antagonists/agonists compared; FIG. 6B
# [2] = tested on: MDA-MB-468 breast cancer cells; experiment: Western immunoblot of treated cells over 24 hours; format: cell-based; details: FIG. 18
# Protocol: Adherent cells were washed once with cold 1×PBS (Corning #01018002) and lysed with RIPA buffer (Sigma #R0278) supplemented by protease and phosphatase inhibitors (Sigma). Protein content was quantified using the DC Protein Assay (BioRad #5000111). Samples were reduced with (loading buffer) and boiled at 95° C. before being resolved by SDS gel electrophoresis on 4-20% Tris/glycine gels (Invitrogen). Proteins were transferred using the IBlot2 (Thermo #IB21001) onto the iBlot™ 2 nitrocellulose Transfer Stacks (Thermo #IB23001). The membranes were then blocked in Odyssey Blocking Buffer (Li-COR #927-40000) for one hour, and then probed overnight with primary antibodies diluted in blocking buffer. The following day, membranes were washed 3×5 mins with 1×TBST and then probed with LiCOR Infrared secondary antibodies for 1 hour at room temperature. Membranes were washed an additional 3×5 mins in 1×TBST and then imaged using the LiCOR Imager. […]
# [3] = target: T1, recombinant human Adenosine A3 (FAST-004C) receptor (Homo sapiens, UniProt P0DMS8); experiment: cAMP HTRF assay, Adenosine A3 receptor, antagonist mode; format: cell-based
# T1 sequence (P0DMS8 1-318): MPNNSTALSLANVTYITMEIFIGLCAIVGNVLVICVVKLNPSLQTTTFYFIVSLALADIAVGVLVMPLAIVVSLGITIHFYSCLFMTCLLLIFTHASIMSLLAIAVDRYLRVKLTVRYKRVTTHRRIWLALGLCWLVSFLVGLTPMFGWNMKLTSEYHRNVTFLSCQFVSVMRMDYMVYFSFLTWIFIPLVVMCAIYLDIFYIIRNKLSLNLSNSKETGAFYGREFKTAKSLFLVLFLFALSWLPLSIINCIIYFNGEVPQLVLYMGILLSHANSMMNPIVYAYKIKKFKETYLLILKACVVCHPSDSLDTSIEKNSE
# [4] = target: T2, recombinant human Adenosine A2B (FAST-003C) receptor (Homo sapiens, UniProt P29275); experiment: cAMP HTRF assay, Adenosine A2B receptor, antagonist mode; design: inhibition: dose or concentration left out as unconfirmed
# T2 sequence (P29275 1-332): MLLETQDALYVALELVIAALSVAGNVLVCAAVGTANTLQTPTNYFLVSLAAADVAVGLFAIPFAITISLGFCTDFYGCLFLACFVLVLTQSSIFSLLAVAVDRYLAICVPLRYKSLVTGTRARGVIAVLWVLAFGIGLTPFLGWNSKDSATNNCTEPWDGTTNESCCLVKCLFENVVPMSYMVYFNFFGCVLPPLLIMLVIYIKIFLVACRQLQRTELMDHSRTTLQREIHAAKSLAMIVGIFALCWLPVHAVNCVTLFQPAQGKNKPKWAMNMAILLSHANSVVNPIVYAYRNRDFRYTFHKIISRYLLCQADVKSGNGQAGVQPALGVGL
# [5] = tested on: MDA-MB-468 and ZR-75-1 cell lines; details: AHR sg3 / AHR sg4 knockout vs GFP sg1 or parental Cas9; FIGS. 13A and 13B
# 578 cancer cell lines = experiment: PRISM multiplexed cellular viability screening; format: cell-based; details: relation to FOXA1 / FOXA1 target expression across cell lines
# Protocol: The instant discovery was made using large-scale multiplex profiling of existing drugs against 578 cancer cell lines, employing a PRISM multiplexed cellular viability assay.
# Parental cell lines were obtained from the Cancer Cell Line Encyclopedia (CCLE) project (1). PRISM cell line barcoding, pooling, and screening was performed as previously described with several improvements to the original method (2). First, the lentiviral vector was modified to encode the unique barcode identifier at the end of the puromycin resistance gene. This enables barcodes to be detected using a variant of the mRNA capture and Luminex detection method developed for the L1000 gene expression assay (3). Second, a set of ten inert barcodes were spiked-in to each well of each plate after cell lysis to control for variation in PCR amplification as detailed below.
# Luminex technology produced .Ixb files containing data for each Luminex bead observed during detection. These .Ixb files were processed to compute Median Fluorescence Intensity (MFI) values, calculated as the median of the values obtained for all beads corresponding to a single PRISM barcode.
# MFI values were log-transformed (log MFI) and used to perform basic quality control. To detect probable screening artifacts, log MFI values were centered to the median log MFI for each cell line on each plate in order to put the measurements from each cell line on the same scale. For each well on each plate, the median of these centered values was then standardized according to the global median and global MAD across all plate wells in the same position. Data from wells with a standardized score of greater than 5 or less than −5 were excluded from all further processing steps.
# For each cell line on each plate, the distribution of MFI values observed for the DMSO-treated negative controls was compared to that of the positive controls using a robust form of the Strictly Standardized Mean Difference (SSMD*)′. Specifically, SSMD* was calculated as: […]
# Data corresponding to SSMD values less than 2 were removed before calculating cell viability.
# The data in the instant disclosure were produced according to two different screening protocols. In the PR500 protocol, ten inert barcodes were spiked-in to each well of each plate after cell lysis. For data produced using the PR500 protocol, normalized MFI (nMFI) values were computed by taking the ratio of each MFI value against the median of the inert barcodes within each well. […]
# Cell viability was calculated as the ratio of nMFI to the median of the nMFI from the DMSO-treated negative controls for each cell line on each plate. […] The final viability values were calculated as the median of the batch-corrected cell viabilities from biological replicates for each cell line, compound and dose. […]
# [6] = tested on: MDA-MB-468 and ZR51 breast cancer and JHH7 liver cancer cell lines
# [7] = antagonist mode dose-response fit
compound,measurement,setting,value
"Nc1nc2ccc(Cl)cc2c2nc(-c3ccco3)nn12 [CGS-15943, reference compound]",cytotoxicity to breast cancer cell lines,[1],cytotoxic
same,CYP1A1 expression,[2]; 24 hour time course,induced CYP1A1 expression
same,FOXA1 levels,[2]; 24 hour time course,maintenance of FOXA1 levels
same,DNA double stranded breaks (pH2A.X) and PARP cleavage,[2]; within 24 hours,induced DNA double stranded breaks and PARP cleavage
same,inhibition at 10 µM,"[3]; CHO-K1, read-out: % Inhibition Average at maximal concentration",68.9%
same,Hill Coefficient,[3]; [7],1.66
same,IC50,"[3]; antagonist mode, CHO-K1, reference agonist IB-MECA",2090 nM
same,inhibition,"[4]; HEK293, read-out: % Inhibition Average at maximal concentration",120%
same,Hill Coefficient,[4]; [7],1.75
same,dependence of cytotoxic activity on AHR,[5],required intact AHR expression
same,cell killing profile in PRISM,578 cancer cell lines,cell killing profile specific for such FOXA1-dependent cancer cell lines; also recorded: selective killing of FOXA1-high cancer cell lines
same,AHR-dependence of the cytotoxic response,[6],dependence upon AHR
